The text below walks through data of patent US20260317319A1, “NOVEL ERGOLINES AND METHODS OF TREATING MOOD DISORDERS” (Gilgamesh Pharma Inc., priority 2023, published 2026).

Where two headings read alike, the source gives them in different places.

The nature of data set [1]: in vitro. Particulars: HLM 0.50 mg/mL, NADPH 1 mM, 1 μM compound, pH 7.4, 37° C., 60 min. The class given is in vitro ADME, human.
Data set [2] can be described thus: in vitro. The class given is in vitro ADME, rat. Particulars: RLM (male Sprague-Dawley) 0.50 mg/mL, NADPH 1 mM, 1 μM compound, pH 7.4, 37° C., 60 min. An excerpt: RLM Stability Pooled RLM from male Sprague-Dawley rats (Xenotech R1000) were used.
In data set [3] the target is T1, 5-HT2A receptor (Homo sapiens, UniProt P28223). Kind of data set: cell-based. The format is cell-based. Conditions: agonist, beta-arrestin recruitment; for EC50: PathHunter, read-out: 5-HT2A Arrestin EC50; for Emax: max dose, read-out: 5-HT2A Arrestin % Act @ Max Dose. Here is the method: Arrestin Functional Assay at 5-HT2A. Recruitment of beta-arrestin was determined using a PathHunter assay at Eurofins DiscoverX (Fremont, CA) according to their standard protocols. PathHunter GPCR beta-arrestin assays take advantage of DiscoverX's proprietary Enzyme Fragment Complementation technology. The GPCR is fused in frame with a small enzyme donor fragment ProLink™ (PK) and co-expressed in cells stably expressing a fusion protein of beta-arrestin and the larger, N-terminal deletion mutant of beta-galactosidase. Activation of the GPCR (5-HT2A receptor in this case) stimulates binding of beta-arrestin to the PK-tagged GPCR and forces complementation of the two enzyme fragments, resulting in the formation of an active beta-galactosidase enzyme. This interaction leads to an increase in enzyme activity that can be measured using chemiluminescent PathHunter Detection Reagents. Briefly, PathHunter cells expressing 5-HT2A receptors were seeded in a volume of 20 μL into 384-well plates and incubated at 37° C. for the appropriate time prior to testing. […] Plates were then imaged on a microplate reader and the agonist activity was calculated using the following formula: % Activity=100%×(mean RLU of test sample-mean RLU of vehicle control)/(mean MAX control ligand-mean RLU of vehicle control), where RLU=relative light units.

The target of a further data set is T2, 5-HT1A receptor (Homo sapiens, UniProt P08908).
T2 construct: expressed in transfected cells; host or cells: CHO cells, stably transfected
T2 sequence (P08908 1-422): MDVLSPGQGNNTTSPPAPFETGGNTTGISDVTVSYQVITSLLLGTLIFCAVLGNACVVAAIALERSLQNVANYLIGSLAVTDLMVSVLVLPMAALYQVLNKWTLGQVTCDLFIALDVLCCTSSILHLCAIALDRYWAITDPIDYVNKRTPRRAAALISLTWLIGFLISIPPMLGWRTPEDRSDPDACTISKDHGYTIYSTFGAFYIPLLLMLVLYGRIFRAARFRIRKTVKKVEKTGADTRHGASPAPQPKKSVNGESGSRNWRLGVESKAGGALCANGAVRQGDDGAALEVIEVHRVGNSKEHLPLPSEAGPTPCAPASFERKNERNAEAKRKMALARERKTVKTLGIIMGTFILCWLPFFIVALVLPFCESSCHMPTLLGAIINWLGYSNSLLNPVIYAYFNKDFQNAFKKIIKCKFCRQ
Put plainly: cell-based. Particulars: CHO, agonist, Ca2+ flux, CHO cells with Gα15, max dose; read-out: 5-HT1A % Act @ Max Dose. In a few lines: (§1)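 Using HEK293 lines for the 5-HT2 subtypes and Gα15-coupled CHO cells for 5-HT1A, compounds were tested as agonists. Fluorescent Ca2+ signal followed dye loading (Fluo-4 Direct, 2.5 mM final probenecid, 50 min, 37 °C).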

The nature of data set [4]: in vitro. The format is in vitro ADME, mouse. Conditions: MLM (male CD-1) 0.50 mg/mL, NADPH 1 mM, 1 μM compound, pH 7.4, 37° C., 60 min. The source says: MLM Stability Pooled MLM from male CD-1 mice (BIOIVT M00501) were used.
The target in data set [5] is T1, 5-HT2A receptor. Put plainly: cell-based. The class given is cell-based. Further details: expressed in transfected cells; host or cells: HEK293, stably transfected. Conditions: HEK293, agonist, Ca2+ flux, HEK293, max dose; read-out: 5-HT2A % Act @ Max Dose. The essentials: as §1
On the technique in general: A change in cytosolic calcium serves as a functional read-out for many receptors and channels.

Another data set deals with T3, 5-HT1B receptor (Homo sapiens, UniProt P28222).
T3 construct: expressed in transfected cells
Kind of data set: cAMP accumulation functional assay at 5-HT1B. Particulars: agonist, cAMP accumulation, max dose; read-out: 5-HT1B % Act @ Max Dose. The class given is cell-based. The method, then:
Functional Assay at 5-HT1B. Agonist activity at 5-HT1B was determined using a CAMP accumulation protocol at WuXi AppTec (Hong Kong) Limited according to their standard protocols. Briefly, stably transfected cells were plated in an OptiPlate-384 well plate, incubated at RT for 60 mins, and cAMP standard solution (800 nM, 10 μL) was added to the blank well. Then, 10 μL detection reagent was added to each well, the plate incubated for 60 mins at RT, and the plate read using En Vision.
(Changes in cAMP serve as a functional read-out for many G protein-coupled receptors.)

Another data set concerns the target T4, 5-HT2B receptor (Homo sapiens, UniProt P41595).
T4 construct: expressed in transfected cells; host or cells: HEK293, stably transfected
Put plainly: cell-based. The class given is cell-based. Conditions: HEK293, agonist, Ca2+ flux, HEK293, max dose; read-out: 5-HT2B % Act @ Max Dose. Here is the method:
Functional Assays at 5-HT2A, 5-HT2B, and 5-HT1A. Agonist activity at 5-HT2A, 5-HT2B, 5HT2C and 5-HT1A receptors was determined using a FLIPR Ca^2+ flux assay at WuXi AppTec (Hong Kong) Limited according to their standard protocols. Briefly, stably transfected cells expressing the receptor of interest and Gα15 in the case of 5-HT1A (HEK293 for 5-HT2A and 5-HT2B; CHO cells for 5-HT1A) were grown and plated in a 384 well plate and incubated at 37° C. and 5% CO2 overnight. A solution of 250 mM probenecid in 1 mL FLIPR assay buffer was prepared fresh. This was combined with a fluorescent dye (Fluo-4 Direct™) to make a final assay concentration of 2.5 mM. […] The fluorescent dye was then added to the assay plate along with assay buffer to a final volume of 40 μL. The cell plate was incubated for 50 min at 37° C. and 5% CO2 and placed into the FLIPR Tetra along with the compound plate. 10 μL of references and compounds were then transferred from the compound plate into the cell plate and the fluorescent signal was read.

For data set [6], the target named is T1, 5-HT2A receptor. Kind of data set: biochemical. The class given is binding. Also on record: expressed in transfected cells; host or cells: HEK293, stably transfected. Conditions: radioligand binding, 5-HT2A. In a few lines:
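Values reflect [^3H]ketanserin binding competition. Assay conditions were adapted from the literature.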

T4 sequence (P41595 whole entry): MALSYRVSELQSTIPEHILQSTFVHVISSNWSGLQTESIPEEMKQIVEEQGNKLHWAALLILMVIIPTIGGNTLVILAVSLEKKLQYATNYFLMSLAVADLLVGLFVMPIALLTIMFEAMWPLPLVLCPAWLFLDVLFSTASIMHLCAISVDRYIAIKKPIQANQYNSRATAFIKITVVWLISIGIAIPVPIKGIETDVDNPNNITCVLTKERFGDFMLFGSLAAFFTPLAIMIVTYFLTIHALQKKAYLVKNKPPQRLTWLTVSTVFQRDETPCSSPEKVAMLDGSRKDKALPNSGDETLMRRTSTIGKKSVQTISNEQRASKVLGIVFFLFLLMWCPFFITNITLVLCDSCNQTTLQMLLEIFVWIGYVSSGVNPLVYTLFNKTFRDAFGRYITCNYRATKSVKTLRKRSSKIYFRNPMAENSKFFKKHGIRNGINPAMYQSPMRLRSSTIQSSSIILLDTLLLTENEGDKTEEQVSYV
T3 sequence (P28222 whole entry): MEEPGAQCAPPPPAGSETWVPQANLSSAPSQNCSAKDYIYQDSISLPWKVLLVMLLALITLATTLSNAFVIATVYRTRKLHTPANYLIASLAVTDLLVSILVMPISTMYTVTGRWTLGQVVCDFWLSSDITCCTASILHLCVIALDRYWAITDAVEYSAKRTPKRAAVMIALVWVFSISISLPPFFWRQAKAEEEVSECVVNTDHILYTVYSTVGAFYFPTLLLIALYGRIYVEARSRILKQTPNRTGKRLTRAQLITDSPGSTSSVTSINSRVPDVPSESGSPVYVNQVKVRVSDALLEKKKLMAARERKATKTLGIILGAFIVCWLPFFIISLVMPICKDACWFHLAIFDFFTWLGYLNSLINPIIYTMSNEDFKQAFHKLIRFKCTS
T1 sequence (P28223 whole entry, the tested form may be a part): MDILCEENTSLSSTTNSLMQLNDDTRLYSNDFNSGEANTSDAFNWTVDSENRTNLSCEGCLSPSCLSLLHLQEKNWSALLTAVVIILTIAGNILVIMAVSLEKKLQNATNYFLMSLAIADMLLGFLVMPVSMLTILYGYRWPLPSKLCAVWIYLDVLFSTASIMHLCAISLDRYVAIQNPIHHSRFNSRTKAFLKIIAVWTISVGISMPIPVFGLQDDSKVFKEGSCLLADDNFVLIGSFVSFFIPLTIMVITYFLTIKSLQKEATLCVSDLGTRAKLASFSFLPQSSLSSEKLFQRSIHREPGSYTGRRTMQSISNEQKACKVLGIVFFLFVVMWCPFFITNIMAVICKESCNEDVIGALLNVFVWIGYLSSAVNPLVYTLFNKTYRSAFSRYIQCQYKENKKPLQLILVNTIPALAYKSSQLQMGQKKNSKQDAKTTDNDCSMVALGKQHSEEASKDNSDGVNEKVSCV

Consider `CCN(CC)C(=O)[C@@H]1C=C2c3cccc4[nH]cc(c34)C[C@H]2N(CCc2ccc(OC)cc2)C1` [Compound 21, (6aR,9R)—N,N-diethyl-7-(4-methoxyphenethyl)-4,6,6a,7,8,9-hexahydroindolo[4,3-fg]quinoline-9-carboxamide], for which the “Intrinsic clearance (Clint)” value in the data set “in vitro [1]” was 367.7 µL/min/mg; in “in vitro [2]”, 323.2 µL/min/mg; in the data set “in vitro [4]”, 717.4 µL/min/mg. Besides, the figures for the “half-life (t1/2)” value in the data set “in vitro [1]”, in “in vitro [2]” and in “in vitro [4]” were 3.8 min, 4.3 min and 1.9 min, respectively. On 5-HT2A receptor [3], the EC50 is 5.85 nM. Also, the Emax stood at 93.7% on 5-HT2A receptor [3]; 8.2% at 5-HT1A receptor; 51.2% on 5-HT2A receptor [5]; 79.1% on 5-HT1B receptor; 1.73% on 5-HT2B receptor.
As for `CCN(CC)C(=O)[C@@H]1C=C2c3cccc4[nH]cc(c34)C[C@H]2N(Cc2ccccn2)C1` [Compound 22, (6aR,9R)—N,N-diethyl-7-(pyridin-2-ylmethyl)-4,6,6a,7,8,9-hexahydroindolo[4,3-fg]quinoline-9-carboxamide], the “Intrinsic clearance (Clint)” value came out at 58.2 µL/min/mg in the data set “in vitro [1]”, 104.8 µL/min/mg in “in vitro [2]” and 150.0 µL/min/mg in the data set “in vitro [4]”. Also, the “half-life (t1/2)” value in “in vitro [1]” came out at 23.8 min; in “in vitro [2]”, 13.2 min; in “in vitro [4]” it was 9.2 min. The EC50 at 5-HT2A receptor [3] turned out to be 6.33 nM. The Emax was determined as 40.6% at 5-HT2A receptor [3]; 57.3% at 5-HT1A receptor; 64.5% at 5-HT2A receptor [5]; 89.2% on 5-HT1B receptor; 7.74% at 5-HT2B receptor.
With `CCN(CC)C(=O)[C@@H]1C=C2c3cccc4[nH]cc(c34)C[C@H]2N(CCc2cccc(OC)c2)C1` [Compound 20, (6aR,9R)—N,N-diethyl-7-(3-methoxyphenethyl)-4,6,6a,7,8,9-hexahydroindolo[4,3-fg]quinoline-9-carboxamide], the “Intrinsic clearance (Clint)” value in the data set “in vitro [1]” is 649.2 µL/min/mg; in “in vitro [2]”, 1147.6 µL/min/mg; in the data set “in vitro [4]” it was 1548.2 µL/min/mg. For the same compound, the “half-life (t1/2)” value was 2.1 min in “in vitro [1]”, 1.2 min in “in vitro [2]” and 0.9 min in “in vitro [4]”. Also, the EC50 at 5-HT2A receptor [3] came to 1.79 nM. Moreover, the Emax at 5-HT2A receptor [3] turned out to be 83.5%; on 5-HT1A receptor, 3.85%; on 5-HT2A receptor [5], 77.2%; at 5-HT1B receptor, 34.6%; at 5-HT2B receptor it was 3.6%.
For `CCN(CC)C(=O)[C@@H]1C=C2c3cccc4[nH]cc(c34)C[C@H]2N(CCc2ccccn2)C1` [Compound 23, (6aR,9R)—N,N-diethyl-7-(2-(pyridin-2-yl)ethyl)-4,6,6a,7,8,9-hexahydroindolo[4,3-fg]quinoline-9-carboxamide], the “Intrinsic clearance (Clint)” value in the data set “in vitro [1]” worked out at 193.3 µL/min/mg; in the data set “in vitro [2]” it was 331.7 µL/min/mg; in the data set “in vitro [4]”, 768.7 µL/min/mg. The “half-life (t1/2)” value in “in vitro [1]” came to 7.2 min; in the data set “in vitro [2]” it was 4.2 min; in “in vitro [4]” it was 1.8 min. Moreover, the EC50 on 5-HT2A receptor [3] stood at 5.97 nM. For the same compound, the Emax came out at 65.2% at 5-HT2A receptor [3]; 46.2% at 5-HT1A receptor; 85.4% on 5-HT2A receptor [5]; 83.7% on 5-HT1B receptor; 12.5% on 5-HT2B receptor.
As for `CCN(CC)C(=O)[C@@H]1C=C2c3cccc4[nH]cc(c34)C[C@H]2N(Cc2ccccc2O)C1` [Compound 16, (6aR,9R)—N,N-diethyl-7-(2-hydroxybenzyl)-4,6,6a,7,8,9-hexahydroindolo[4,3-fg]quinoline-9-carboxamide], the “Intrinsic clearance (Clint)” value in the data set “in vitro [1]” came out at 285.8 µL/min/mg; in the data set “in vitro [2]”, 616.3 µL/min/mg; in “in vitro [4]” it was 1053.2 µL/min/mg. Further, the “half-life (t1/2)” value is 4.9 min in the data set “in vitro [1]”, 2.2 min in the data set “in vitro [2]” and 1.3 min in “in vitro [4]”. Also, on 5-HT2A receptor [3], the EC50 was 3.96 nM. Further, the Emax amounted to 47.6% at 5-HT2A receptor [3]; 22.3% at 5-HT1A receptor; 62% at 5-HT2A receptor [5]; 90.1% on 5-HT1B receptor; 26.5% at 5-HT2B receptor.
On to `CCN(CC)C(=O)[C@@H]1C=C2c3cccc4c3C(CN4)C[C@H]2N(C)C1` (mixture of isomers) [Compound 37, (6aR,9R)—N,N-diethyl-7-methyl-4,5,5a,6,6a,7,8,9-octahydroindolo[4,3-fg]quinoline-9-carboxamide], for which, on 5-HT2A receptor [6], the “potency in receptor binding” value is recorded as “reduced in potency compared to their dehydro counterparts”. Moreover, the Emax turned out to be 109% on 5-HT1A receptor, 76.4% at 5-HT2A receptor [5], 90.7% on 5-HT1B receptor and 24.1% at 5-HT2B receptor.
For the compound `C=CCN1C[C@H](C(=O)N2[C@@H](C)C[C@@H]2C)C=C2c3cccc4[nH]cc(c34)C[C@H]21` [Compound 27, ((6aR,9R)-7-allyl-4,6,6a,7,8,9-hexahydroindolo[4,3-fg]quinolin-9-yl)((2S,4S)-2,4-dimethylazetidin-1-yl)methanone], the Emax turned out to be 90.8% on 5-HT1A receptor, 81.1% at 5-HT2A receptor [5], 96.9% on 5-HT1B receptor and 96% at 5-HT2B receptor.

The term EC50 denotes the concentration needed to bring the measured effect to its halfway point.
